{"source": "patent US20060025474A1", "about": "“Bisphenyl compounds useful as vitamin D3 receptor agonists” (priority 2004, published 2006)", "key": {"[1]": {"tested_on": "ECAC2 mRNA in Caco-2 cells", "type": "cell-based", "method": "The mRNA Expression Assay of ECAC2 in Caco-2 Cells\nThe dispersed cells were plated in 48-well plate at a concentration of 6.3×10^4 cells/well and incubated for 4 days at 37° C. The culture medium (Dulbecco's Modified Eagle Medium (D-MEM) without NaHCO3 with 44 mM NaHCO3, 1 mM non-essential amino acids, and 2 mM L-glutamine, 90%; fetal bovine serum, 10%) was then replaced with the same medium containing various concentrations of LG190178 (the compound disclosed in WO00/10958 and the corresponding U.S. Pat. No. 6,218,430 B1) or the compounds of the present invention, and cells were cultured for 1 day at 37° C. The culture medium containing the compounds was changed twice per day.\nTotal RNA Isolation from Caco-2 Cell\nTotal RNA was isolated from Caco-2 cell following ABI PRISM™ 6100 Nucleic Acid PrepStation protocol from Applied Biosystems.\nReal Time RT-PCR Assay of ECAC2\nECAC2 mRNA expression was determined using TaqMan One-step RT-PCR Master Mix Reagents Kit and PRISM7000 systems from Applied Biosystems.\nPrimer information and cycle conditions are 1)ECAC2, forward 5′-[…]-3′, reverse 5′-GTCCTCTGTCTGGMGATGA-3′, Taqman probe 5′-[…]-3′, 55 cycles, annealing temperature (Ta)=60° C.; 2)GAPDH, forward 5′-GMGGTGMGGTCGGAGTC-3′, reverse 5′-GMGATGGTGATGGGATTTC-3′, Taqman probe 5′-[…]-3′, 55 cycles, Ta=60° C. ECAC2 mRNA values were normalized for the expression of GAPDH mRNA within each sample.\nComparison of ECAC2 mRNA Value\nThe EC50 values of ECAC2 mRNA values were analyzed by Emax models. The ECAC2 mRNA ratio was calculated as the ratio of the EC50 value of the compounds to that of LG190178. ECAC2 is a channel-like transporter mediating intestinal calcium absorption. It is described in J Biol Chem. Aug. 6, 1999; 274(32):22739-46 for example."}, "[2]": {"tested_on": "ovariectomized (OVX) rats", "assay": "Bone mineral density in the ovariectomized (OVX) rats (2)", "type": "in vivo, Sprague-Dawley rats", "conditions": "orally seven times a week for 4 weeks; for Spinal BMD: L2-L5", "method": "Bone Mineral Density in the Ovariectomized (OVX) Rats (2)\nAlfacalcidol was synthesized in Chugai Pharmaceutical Co., Ltd., Japan, dissolved in a vehicle (medium chain triglyceride, MCT) and diluted to a given concentration. The stock solutions were protected from light and stored at 4° C.\nEight-month-old female Sprague-Dawley (Crl:CD(SD)) rats were purchased from Charles River Japan Inc. (Kanagawa, Japan) and acclimated under standard laboratory conditions at 23±2° C. and 40-70% humidity. The rats were allowed free access to tap water and commercial standard rodent chow CRF-1 (Oriental Yeast Co. Ltd., Japan).\nSham-operated (n=8) and the ovariectomized (OVX) rats were used. The OVX rats were divided into each group (n=8) one day after the surgery. In the sham and OVX control groups, rats received the vehicle (MCT) p.o. at a dose of 1 ml/kg body weight (BW) every day. Each compound was given orally seven times a week for 4 weeks.\nDuring the 24 hours from the last administration, urine was collected with metabolic cage, and blood was drawn from the jugular vein under ether anesthesia. Blood and urine samples were centrifuged to obtain the supernatant, which were stored at −20° C. until assay. The lumbar vertebrae and femora were removed. The lumbar vertebra and the right femur were stored i 70% ethanol at 4° C. for the measurement of bone mineral density (BMD).\nSerum and Urine Biochemistry\nSerum calcium (Ca) and inorganic phosphorus (Pi) concentrations were measured with an autoanalyzer (Hitachi 7170, Tokyo, Japan). The serum osteocalcin concentration was measured with Osteocalcin rat ELISA system (Smersham Pharmacia Biotech, Tokyo, Japan). Urinary Ca, Pi, and creatinine (Cre) were measured with an autoanalyzer. Urinary deoxypyridinoline (D-Pyr) was measured using a Metra DPD EIA kit (Quidel Co., USA), and the data were corrected for urinary Cre concentrations.\nMeasurement of Bone Mineral Density\nThe second through fifth lumbar vertebaral (L2-L5) BMD (mg/cm^2) and femoral BMD were measured by dual-energy X-ray absorptiometry (DCS-600-EX, Aloka, Japan)."}}, "data": [{"smiles": "CCc1cc(C(CC)(CC)c2ccc(C(=O)N[C@@H](C)C(=O)O)s2)ccc1OCC(C)(O)C(C)(C)C", "note": "(single isomer, unassigned) [Compound D, reference compound]", "values": [{"measurement": "ECaC-2 mRNA induction activity in Caco-2 cells", "setting": "[1]", "result": 14, "unit": "%"}]}, {"smiles": "CCC(CC)(c1ccc(CCC(O)C(C)(C)C)c(C)c1)c1ccc(OC[C@@H](O)CCCC(=O)O)c(C)c1", "note": "(stereo partly drawn) [Example 186, 6-(4-{1-Ethyl-1-[4-(3-hydroxy-4,4-dimethyl-pentyl)-3-methyl-phenyl]-propyl}-2-methyl-phenoxy)-5(S)-hydroxy-hexanoic acid]", "values": [{"measurement": "ECaC-2 mRNA induction activity in Caco-2 cells", "setting": "[1]", "result": 57, "unit": "%"}]}, {"smiles": "CCC(CC)(c1ccc(/C=C/C(O)(C(F)(F)F)C(F)(F)F)c(C)c1)c1ccc(OC[C@@H](O)CCC(=O)O)c(C)c1", "note": "[Example 30, (S)-5-(4-{1-ethyl-1-[3-methyl-4-((E)-4,4,4-trifluoro-3-hydroxy-3-trifluoromethyl-but-1-enyl)-phenyl]-propyl}-2-methyl-phenoxy)-4-hydroxy-pentanoic acid]", "values": [{"measurement": "ECaC-2 mRNA induction activity in Caco-2 cells", "setting": "[1]", "result": 1777, "unit": "%"}]}, {"smiles": "CCC(CC)(c1ccc(/C=C/C(O)(C(F)(F)F)C(F)(F)F)c(C)c1)c1ccc(OCCCCC(=O)O)c(C)c1", "note": "[Example 84, 5-(4-{1-ethyl-1-[3-methyl-4-((E)-4,4,4-trifluoro-3-hydroxy-3-trifluoromethyl-but-1-enyl)-phenyl]-propyl}-2-methyl-phenoxy)-pentanoic acid]", "values": [{"measurement": "ECaC-2 mRNA induction activity in Caco-2 cells", "setting": "[1]", "result": 1843, "unit": "%"}]}, {"smiles": "CCC(CC)(c1ccc(CCC(O)(C(F)(F)F)C(F)(F)F)c(C)c1)c1ccc(OCC(CO)CO)c(C)c1", "note": "[Example 79, 2-(4-{1-ethyl-1-[3-methyl-4-(4,4,4-trifluoro-3-hydroxy-3-trifluoromethyl-butyl)-phenyl]-propyl}-2-methyl-phenoxymethyl)-propane-1,3-diol]", "values": [{"measurement": "ECaC-2 mRNA induction activity in Caco-2 cells", "setting": "[1]", "result": 178, "unit": "%"}]}, {"smiles": "CCC(CC)(c1ccc(/C=C/C(O)(C(F)(F)F)C(F)(F)F)c(C)c1)c1ccc(OC[C@@H]2CCCO2)c(C)c1", "note": "[Example 157, (E)4-[4-(1-Ethyl-1-{3-methyl-4-[(S)-1-(tetrahydro-furan-2-yl)methoxy]-phenyl}-propyl)-2-methyl-phenyl]-1,1,1-trifluoro-2-trifluoromethyl-but-3-en-2-ol]", "values": [{"measurement": "ECaC-2 mRNA induction activity in Caco-2 cells", "setting": "[1]", "result": 1647, "unit": "%"}]}, {"smiles": "CCC(CC)(c1ccc(/C=C/C(O)(C(F)(F)F)C(F)(F)F)c(C)c1)c1ccc(OCC(CO)CO)c(C)c1", "note": "[Example 78, 2-(4-{1-ethyl-1-[3-methyl-4-((E)-4,4,4-trifluoro-3-hydroxy-3-trifluoromethyl-but-1-enyl)-phenyl]-propyl}-2-methyl-phenoxymethyl)-propane-1,3-diol]", "values": [{"measurement": "ECaC-2 mRNA induction activity in Caco-2 cells", "setting": "[1]", "result": 6659, "unit": "%"}]}, {"smiles": "CCC(CC)(c1ccc(/C=C/C(O)(C(F)(F)F)C(F)(F)F)c(C)c1)c1ccc(OC[C@H](O)CCCO)c(C)c1", "note": "[Example 154, (R)-5-(4-{1-Ethyl-1-[3-methyl4-((E)-4,4,4-trifluoro-3-hydroxy-3-trifluoromethyl-but-1-enyl)-phenyl]-propyl}-2-methyl-phenoxy)-pentane-1,4-diol]", "values": [{"measurement": "ECaC-2 mRNA induction activity in Caco-2 cells", "setting": "[1]", "result": 1784, "unit": "%"}]}, {"smiles": "C=C1/C(=C\\C=C2/CCC[C@]3(C)[C@@H]([C@H](C)CCCC(C)C)CC[C@@H]23)C[C@@H](O)C[C@@H]1O", "note": "[Alfacalcidol]", "values": [{"measurement": "serum Ca", "setting": "[2]; 0.125 microgram/kg/week", "result": 10.2, "unit": "mg/dL"}, {"measurement": "Spinal BMD", "setting": "[2]; 0.125 microgram/kg/week", "result": 182.1, "unit": "mg/cm2"}, {"measurement": "serum Ca", "setting": "[2]; 0.25 microgram/kg/week", "result": 10.6, "unit": "mg/dL"}, {"measurement": "Spinal BMD", "setting": "[2]; 0.25 microgram/kg/week", "result": 180.9, "unit": "mg/cm2"}, {"measurement": "serum Ca", "setting": "[2]; 0.5 microgram/kg/week", "result": 10.7, "unit": "mg/dL"}, {"measurement": "Spinal BMD", "setting": "[2]; 0.5 microgram/kg/week", "result": 185.1, "unit": "mg/cm2"}]}, {"smiles": "CCC(CC)(c1ccc(/C=C/C(O)(C(F)(F)F)C(F)(F)F)c(C)c1)c1ccc(OC[C@@H](O)CCCO)c(C)c1", "note": "[Example 156, (S)-5-(4-{1-Ethyl-1-[3-methyl4-((E)4,4,4-trifluoro-3-hydroxy-3-trifluoromethyl-but-1-enyl)-phenyl]-propyl}-2-methyl-phenoxy)-pentane-1,4-diol]", "values": [{"measurement": "ECaC-2 mRNA induction activity in Caco-2 cells", "setting": "[1]", "result": 4760, "unit": "%"}]}, {"smiles": "CCC(O)(/C=C/c1ccc(C(CC)(CC)c2ccc(OC[C@@H](O)CO)c(C)c2)cc1C)CC", "note": "[Example 64, (S)-3-(4-{1-ethyl-1-[4-((E)-3-ethyl-3-hydroxy-pent-1-enyl)-3-methyl-phenyl]-propyl}-2-methyl-phenoxy)-propane-1,2-diol]", "values": [{"measurement": "ECaC-2 mRNA induction activity in Caco-2 cells", "setting": "[1]", "result": 90, "unit": "%"}]}, {"smiles": "CCC(CC)(c1ccc(C#CC(O)(C(F)(F)F)C(F)(F)F)c(C)c1)c1ccc(OC[C@H](O)CCCO)c(C)c1", "note": "[Example 152, (R)-5-(4-{1-Ethyl-1-[3-methyl-4-(4,4,4-trifluoro-3-hydroxy-3-trifluoromethyl-but-1-ynyl)-phenyl]-propyl}-2-methyl-phenoxy)-pentane-1,4-diol]", "values": [{"measurement": "ECaC-2 mRNA induction activity in Caco-2 cells", "setting": "[1]", "result": 586, "unit": "%"}]}, {"smiles": "CCC(O)(/C=C/c1ccc(C(CC)(CC)c2ccc(OCc3ccc(C(=O)O)cc3)c(C)c2)cc1C)CC", "note": "[Example 147, 4-(4-{I-Ethyl-1-[4-((E)-3-ethyl-3-hydroxy-pent-1-enyl)-3-methyl-phenyl]-propyl}-2-methyl-phenoxymethyl)-benzoic acid]", "values": [{"measurement": "ECaC-2 mRNA induction activity in Caco-2 cells", "setting": "[1]", "result": 75, "unit": "%"}]}, {"smiles": "CCC(O)(/C=C/c1ccc(C(CC)(CC)c2cc(C)c(OC[C@@H]3CCC(=O)O3)c(C)c2)cc1C)CC", "note": "[Example 166, (S)-5-(4-{1-Ethyl-1-[4-((E)-3-ethyl-3-hydroxy-pent-1-enyl)-3-methyl-phenyl]-propyl}-2,6-dimethyl-phenoxymethyl)-dihydro-furan-2-one]", "values": [{"measurement": "ECaC-2 mRNA induction activity in Caco-2 cells", "setting": "[1]", "result": 86, "unit": "%"}]}, {"smiles": "CCc1cc(C(CC)(CC)c2ccc(C(=O)N[C@@H](C)C(=O)O)s2)ccc1OCC(C)(O)C(C)(C)C", "note": "(single isomer, unassigned) [Compound C, reference compound]", "values": [{"measurement": "ECaC-2 mRNA induction activity in Caco-2 cells", "setting": "[1]", "result": 34, "unit": "%"}]}, {"smiles": "CCC(O)(/C=C/c1ccc(C(CC)(CC)c2ccc(OCCCCC(=O)O)c(C)c2)cc1C)CC", "note": "[Example 81, 5-(4-{1-Ethyl-1-[4-((E)-3-ethyl-3-hydroxy-pent-1-enyl)-3-methyl-phenyl]-propyl}-2-methyl-phenoxy)-pentanoic acid]", "values": [{"measurement": "ECaC-2 mRNA induction activity in Caco-2 cells", "setting": "[1]", "result": 102, "unit": "%"}]}, {"smiles": "CCC(O)(/C=C/c1ccc(C(CC)(CC)c2ccc(OC[C@@H](O)CCC(=O)O)c(C)c2)cc1C)CC", "note": "[Example 1, (S)-5-(4-{1-ethyl-1-[4-((E)-3-ethyl-3-hydroxy-pent-1-enyl)-3-methyl-phenyl]-propyl}-2-methyl-phenoxy)-4-hydroxy-pentanoic acid]", "values": [{"measurement": "ECaC-2 mRNA induction activity in Caco-2 cells", "setting": "[1]", "result": 36, "unit": "%"}]}, {"smiles": "CCC(O)(/C=C/c1ccc(C(CC)(CC)c2ccc(OCC(=O)NCCN)c(C)c2)cc1C)CC", "note": "[Example 195, (E)-N-(2-Amino-ethyl)-2-(4-{1-ethyl-1-[4-(3-ethyl-3-hydroxy-pent-1-enyl)-3-methyl-phenyl]-propyl}-2-methyl-phenoxy)-acetamide]", "values": [{"measurement": "ECaC-2 mRNA induction activity in Caco-2 cells", "setting": "[1]", "result": 135, "unit": "%"}]}, {"smiles": "CCC(CC)(c1ccc(/C=C/C2(O)CCCCC2)c(C)c1)c1ccc(OC[C@@H](O)CCC(=O)O)c(C)c1", "note": "[Example 37, (S)-5-[4-(1-ethyl-1-{4-[(E)-2-(1-hydroxy-cyclohexyl)-vinyl]-3-methyl-phenyl}-propyl)-2-methyl-phenoxy]-4-hydroxy-pentanoic acid]", "values": [{"measurement": "ECaC-2 mRNA induction activity in Caco-2 cells", "setting": "[1]", "result": 639, "unit": "%"}]}]}
